Laboratory results: the NIST ThermoML archive (doi:10.1021/je060339m)
± gives the expanded uncertainty stated by the source.

Settings: Liquid

Structure (SMILES): CCCOC(C)=O [propyl ethanoate]
- mass density (343.15 K, 2000 kPa): 833.7 ± 3.5 kg/m3
- mass density (343.15 K, 3000 kPa): 834.9 ± 3.7 kg/m3
- mass density (343.15 K, 3300 kPa): 835.3 ± 3.7 kg/m3
- mass density (343.15 K, 5000 kPa): 837.6 ± 3.9 kg/m3
- mass density (343.15 K, 10000 kPa): 843.6 ± 4.5 kg/m3
- mass density (343.15 K, 15000 kPa): 849.1 ± 5.1 kg/m3
- mass density (343.15 K, 20000 kPa): 854.3 ± 5.7 kg/m3
- mass density (343.15 K, 25000 kPa): 859.2 ± 6.3 kg/m3
- mass density (343.15 K, 30000 kPa): 865 ± 6.9 kg/m3
- mass density (343.15 K, 35000 kPa): 871.2 ± 7.5 kg/m3
- mass density (348.15 K, 100 kPa): 825.6 ± 3.3 kg/m3
- mass density (348.15 K, 1000 kPa): 826.8 ± 3.4 kg/m3
- mass density (348.15 K, 2000 kPa): 828.1 ± 3.5 kg/m3
- mass density (348.15 K, 3000 kPa): 829.5 ± 3.7 kg/m3
- mass density (348.15 K, 3300 kPa): 829.9 ± 3.7 kg/m3
- mass density (348.15 K, 5000 kPa): 832.2 ± 3.9 kg/m3
- mass density (348.15 K, 10000 kPa): 838.3 ± 4.5 kg/m3
- mass density (348.15 K, 15000 kPa): 844.1 ± 5.1 kg/m3
- mass density (348.15 K, 20000 kPa): 849.5 ± 5.7 kg/m3
- mass density (348.15 K, 25000 kPa): 854.5 ± 6.3 kg/m3
- mass density (348.15 K, 30000 kPa): 860.6 ± 6.9 kg/m3
- mass density (348.15 K, 35000 kPa): 866.8 ± 7.5 kg/m3
- mass density (353.15 K, 100 kPa): 820 ± 3.3 kg/m3
- mass density (353.15 K, 1000 kPa): 821.2 ± 3.4 kg/m3
- mass density (353.15 K, 2000 kPa): 822.6 ± 3.5 kg/m3
- mass density (353.15 K, 3000 kPa): 824 ± 3.7 kg/m3
- mass density (353.15 K, 3300 kPa): 824.4 ± 3.7 kg/m3
- mass density (353.15 K, 5000 kPa): 826.9 ± 3.9 kg/m3
- mass density (353.15 K, 10000 kPa): 833.3 ± 4.5 kg/m3
- mass density (353.15 K, 15000 kPa): 838.8 ± 5.1 kg/m3
- mass density (353.15 K, 20000 kPa): 844.8 ± 5.7 kg/m3
- mass density (353.15 K, 25000 kPa): 850 ± 6.3 kg/m3
- mass density (353.15 K, 30000 kPa): 856.4 ± 6.9 kg/m3
- mass density (353.15 K, 35000 kPa): 862.7 ± 7.5 kg/m3
- mass density (358.15 K, 100 kPa): 811.6 ± 3.3 kg/m3
- mass density (358.15 K, 1000 kPa): 812.9 ± 3.4 kg/m3
- mass density (358.15 K, 2000 kPa): 814.4 ± 3.5 kg/m3
- mass density (358.15 K, 3000 kPa): 815.8 ± 3.7 kg/m3
- mass density (358.15 K, 3300 kPa): 816.3 ± 3.7 kg/m3
- mass density (358.15 K, 5000 kPa): 818.6 ± 3.9 kg/m3
- mass density (358.15 K, 10000 kPa): 825.3 ± 4.5 kg/m3
- mass density (358.15 K, 15000 kPa): 831.5 ± 5.1 kg/m3
- mass density (358.15 K, 20000 kPa): 837.2 ± 5.7 kg/m3
- mass density (358.15 K, 25000 kPa): 842.8 ± 6.3 kg/m3
- mass density (363.15 K, 100 kPa): 804.8 ± 3.3 kg/m3
- mass density (363.15 K, 1000 kPa): 806.9 ± 3.4 kg/m3
- mass density (363.15 K, 2000 kPa): 808.4 ± 3.5 kg/m3
- mass density (363.15 K, 3000 kPa): 810 ± 3.7 kg/m3
- mass density (363.15 K, 3300 kPa): 810.4 ± 3.7 kg/m3
- mass density (363.15 K, 5000 kPa): 812.9 ± 3.9 kg/m3
- mass density (363.15 K, 10000 kPa): 819.9 ± 4.5 kg/m3
- mass density (363.15 K, 15000 kPa): 826.2 ± 5.1 kg/m3
- mass density (363.15 K, 20000 kPa): 832.1 ± 5.7 kg/m3
- mass density (363.15 K, 25000 kPa): 837.7 ± 6.3 kg/m3
- mass density (363.15 K, 30000 kPa): 844.4 ± 6.9 kg/m3
- mass density (368.15 K, 1000 kPa): 801 ± 3.4 kg/m3
- mass density (368.15 K, 2000 kPa): 802.7 ± 3.6 kg/m3
- mass density (368.15 K, 3000 kPa): 804.3 ± 3.7 kg/m3
- mass density (368.15 K, 3300 kPa): 804.8 ± 3.7 kg/m3
- mass density (368.15 K, 5000 kPa): 807.4 ± 3.9 kg/m3
- mass density (368.15 K, 10000 kPa): 814.6 ± 4.5 kg/m3
- mass density (368.15 K, 15000 kPa): 821.2 ± 5.1 kg/m3
- mass density (368.15 K, 20000 kPa): 827.3 ± 5.7 kg/m3
- mass density (368.15 K, 25000 kPa): 833.1 ± 6.3 kg/m3
- mass density (373.15 K, 1000 kPa): 795.5 ± 3.4 kg/m3
- mass density (373.15 K, 2000 kPa): 797.2 ± 3.6 kg/m3
- mass density (373.15 K, 3000 kPa): 798.9 ± 3.7 kg/m3
- mass density (373.15 K, 3300 kPa): 799.5 ± 3.7 kg/m3
- mass density (373.15 K, 5000 kPa): 802.3 ± 3.9 kg/m3
- mass density (373.15 K, 10000 kPa): 809.8 ± 4.5 kg/m3
- mass density (373.15 K, 15000 kPa): 816.6 ± 5.1 kg/m3
- mass density (373.15 K, 20000 kPa): 822.9 ± 5.7 kg/m3
- mass density (373.15 K, 25000 kPa): 828.9 ± 6.3 kg/m3
- mass density (378.15 K, 1000 kPa): 789.4 ± 3.4 kg/m3
- mass density (378.15 K, 2000 kPa): 791.3 ± 3.6 kg/m3
- mass density (378.15 K, 3000 kPa): 793 ± 3.7 kg/m3
- mass density (378.15 K, 3300 kPa): 793.6 ± 3.7 kg/m3
- mass density (378.15 K, 5000 kPa): 796.3 ± 3.9 kg/m3
- mass density (378.15 K, 10000 kPa): 803.3 ± 4.5 kg/m3
- mass density (378.15 K, 15000 kPa): 811.3 ± 5.1 kg/m3
- mass density (378.15 K, 20000 kPa): 817.7 ± 5.7 kg/m3
- mass density (378.15 K, 25000 kPa): 824 ± 6.3 kg/m3
- mass density (378.15 K, 30000 kPa): 831.2 ± 6.9 kg/m3
- mass density (383.15 K, 1000 kPa): 783.6 ± 3.5 kg/m3
- mass density (383.15 K, 2000 kPa): 785.5 ± 3.6 kg/m3
- mass density (383.15 K, 3000 kPa): 787.3 ± 3.7 kg/m3
- mass density (383.15 K, 3300 kPa): 788.2 ± 3.7 kg/m3
- mass density (383.15 K, 5000 kPa): 791.2 ± 3.9 kg/m3
- mass density (383.15 K, 10000 kPa): 799.2 ± 4.5 kg/m3
- mass density (383.15 K, 15000 kPa): 806.6 ± 5.1 kg/m3
- mass density (383.15 K, 20000 kPa): 813.2 ± 5.8 kg/m3
- mass density (383.15 K, 25000 kPa): 819.7 ± 6.4 kg/m3
- mass density (388.15 K, 1000 kPa): 777.9 ± 3.5 kg/m3
- mass density (388.15 K, 2000 kPa): 779.8 ± 3.6 kg/m3
- mass density (388.15 K, 3000 kPa): 781.6 ± 3.7 kg/m3
- mass density (388.15 K, 3300 kPa): 782.1 ± 3.8 kg/m3
- mass density (388.15 K, 5000 kPa): 785.4 ± 4 kg/m3
- mass density (388.15 K, 10000 kPa): 793.8 ± 4.6 kg/m3
- mass density (388.15 K, 15000 kPa): 801.5 ± 5.2 kg/m3
- mass density (388.15 K, 20000 kPa): 808.5 ± 5.8 kg/m3
- mass density (388.15 K, 25000 kPa): 815.2 ± 6.4 kg/m3
- mass density (388.15 K, 30000 kPa): 823.2 ± 7 kg/m3
- mass density (393.15 K, 1000 kPa): 771.8 ± 3.5 kg/m3
- mass density (393.15 K, 2000 kPa): 773.9 ± 3.6 kg/m3
- mass density (393.15 K, 3000 kPa): 775.9 ± 3.7 kg/m3
- mass density (393.15 K, 3300 kPa): 776.4 ± 3.8 kg/m3
- mass density (393.15 K, 5000 kPa): 779.7 ± 4 kg/m3
- mass density (393.15 K, 10000 kPa): 788.6 ± 4.6 kg/m3
- mass density (393.15 K, 15000 kPa): 796.5 ± 5.2 kg/m3
- mass density (393.15 K, 20000 kPa): 803.8 ± 5.8 kg/m3
- mass density (393.15 K, 25000 kPa): 810.7 ± 6.4 kg/m3
